Key:
[1] = Protein binding in mouse serum assessed as fraction unbound; type: ADME, cell-free; settings: read-out: PB
[2] = Apparent permeability across apical to basolateral membrane in human Caco2 cells; type: ADME, cell-based; settings: Caco-2
Cytochrome P450 2C8 = target: T1, Cytochrome P450 2C8 (Homo sapiens, UniProt P10632); experiment: Inhibition of CYP2C8 (unknown origin); type: ADME
T1 sequence (P10632 whole entry): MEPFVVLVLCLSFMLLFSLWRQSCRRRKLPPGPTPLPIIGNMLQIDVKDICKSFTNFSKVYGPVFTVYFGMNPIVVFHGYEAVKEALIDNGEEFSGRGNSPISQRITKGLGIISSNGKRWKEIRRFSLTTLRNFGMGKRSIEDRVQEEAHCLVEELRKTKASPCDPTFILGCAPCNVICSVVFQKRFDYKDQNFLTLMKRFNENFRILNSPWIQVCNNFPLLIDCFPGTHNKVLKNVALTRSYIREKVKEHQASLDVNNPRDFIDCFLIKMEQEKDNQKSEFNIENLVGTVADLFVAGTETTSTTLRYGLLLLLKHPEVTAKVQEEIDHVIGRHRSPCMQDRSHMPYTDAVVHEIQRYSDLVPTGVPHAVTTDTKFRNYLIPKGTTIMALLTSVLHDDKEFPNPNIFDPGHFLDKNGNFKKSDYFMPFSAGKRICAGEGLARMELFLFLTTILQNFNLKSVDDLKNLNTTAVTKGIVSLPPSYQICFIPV

[3] = Protein binding in human serum assessed as fraction unbound; type: ADME, cell-free; settings: read-out: PB
[4] = target: T2, Nuclear receptor ROR-gamma (Homo sapiens, UniProt P51449); experiment: Inverse agonist activity at RORgammat in human whole blood assessed as inhibition of anti-CD3/anti-CD28 monoclonal antibodies-stimulated IL-17A production measured by ELISA; type: tissue-based
T2 sequence (P51449 whole entry): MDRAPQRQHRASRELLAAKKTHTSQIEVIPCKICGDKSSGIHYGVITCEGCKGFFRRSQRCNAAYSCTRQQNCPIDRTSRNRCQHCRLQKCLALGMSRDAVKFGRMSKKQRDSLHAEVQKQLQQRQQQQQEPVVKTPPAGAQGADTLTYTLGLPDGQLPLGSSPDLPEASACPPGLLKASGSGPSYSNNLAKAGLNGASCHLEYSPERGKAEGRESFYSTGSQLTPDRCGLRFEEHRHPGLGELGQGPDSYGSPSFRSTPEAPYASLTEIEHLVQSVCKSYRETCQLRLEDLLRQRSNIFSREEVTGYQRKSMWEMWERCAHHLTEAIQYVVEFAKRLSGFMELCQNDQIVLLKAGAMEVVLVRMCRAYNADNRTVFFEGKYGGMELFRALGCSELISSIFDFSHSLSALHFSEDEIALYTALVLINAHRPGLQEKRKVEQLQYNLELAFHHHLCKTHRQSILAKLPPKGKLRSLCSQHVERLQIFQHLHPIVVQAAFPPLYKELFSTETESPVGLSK

Cytochrome P450 3A4 = Cytochrome P450 3A4 (Homo sapiens, UniProt P08684); experiment: Inhibition of CYP3A4 (unknown origin); type: ADME
Sequence of Cytochrome P450 3A4 (P08684 whole entry): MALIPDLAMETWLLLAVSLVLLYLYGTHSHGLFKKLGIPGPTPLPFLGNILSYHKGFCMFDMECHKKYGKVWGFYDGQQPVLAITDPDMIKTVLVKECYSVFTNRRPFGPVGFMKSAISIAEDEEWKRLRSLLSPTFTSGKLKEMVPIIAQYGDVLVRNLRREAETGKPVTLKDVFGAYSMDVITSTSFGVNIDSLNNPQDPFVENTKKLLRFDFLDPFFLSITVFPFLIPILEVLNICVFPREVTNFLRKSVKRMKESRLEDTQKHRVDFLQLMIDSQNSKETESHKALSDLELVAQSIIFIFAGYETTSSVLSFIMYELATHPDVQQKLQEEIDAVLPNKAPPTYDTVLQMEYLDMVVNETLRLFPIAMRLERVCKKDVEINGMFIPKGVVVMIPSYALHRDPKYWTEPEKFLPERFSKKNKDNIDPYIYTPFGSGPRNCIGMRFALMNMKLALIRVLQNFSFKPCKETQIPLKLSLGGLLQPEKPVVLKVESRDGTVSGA

[5] = Metabolic stability in human liver microsomes assessed as compound remaining after 10 mins; type: ADME, Microsome; settings: read-out: Stabilty
[6] = Efflux ratio of apparent permeability across basolateral to apical side over apical to basolateral side in Caco2 cells; type: ADME, cell-based; settings: human, Caco-2
[7] = Metabolic stability in mouse liver microsomes assessed as compound remaining after 10 mins; type: ADME, Microsome; settings: read-out: Stabilty
[8] = target: T2, Nuclear receptor ROR-gamma; experiment: Inverse agonist activity at human Gal4-fused RORgammat expressed in human Jurkat cells luciferase reporter gene assay; type: cell-based
Cytochrome P450 2C9 = Cytochrome P450 2C9 (Homo sapiens, UniProt P11712); experiment: Inhibition of CYP2C9 (unknown origin); type: ADME
Sequence of Cytochrome P450 2C9 (P11712 whole entry): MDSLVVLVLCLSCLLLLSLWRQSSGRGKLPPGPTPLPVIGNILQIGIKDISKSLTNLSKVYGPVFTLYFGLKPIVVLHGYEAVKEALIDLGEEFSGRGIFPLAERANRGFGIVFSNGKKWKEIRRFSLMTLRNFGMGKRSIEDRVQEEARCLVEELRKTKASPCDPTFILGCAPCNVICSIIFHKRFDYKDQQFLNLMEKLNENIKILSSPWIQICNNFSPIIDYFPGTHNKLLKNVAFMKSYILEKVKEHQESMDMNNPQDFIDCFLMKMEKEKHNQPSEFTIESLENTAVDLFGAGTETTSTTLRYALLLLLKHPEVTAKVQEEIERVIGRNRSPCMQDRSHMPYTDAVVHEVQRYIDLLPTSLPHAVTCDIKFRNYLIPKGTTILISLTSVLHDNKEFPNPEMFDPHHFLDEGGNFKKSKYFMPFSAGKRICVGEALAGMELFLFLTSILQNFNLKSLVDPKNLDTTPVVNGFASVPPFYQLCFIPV

Cytochrome P450 2C19 = Cytochrome P450 2C19 (Homo sapiens, UniProt P33261); experiment: Inhibition of CYP2C19 (unknown origin); type: ADME
Sequence of Cytochrome P450 2C19 (P33261 whole entry): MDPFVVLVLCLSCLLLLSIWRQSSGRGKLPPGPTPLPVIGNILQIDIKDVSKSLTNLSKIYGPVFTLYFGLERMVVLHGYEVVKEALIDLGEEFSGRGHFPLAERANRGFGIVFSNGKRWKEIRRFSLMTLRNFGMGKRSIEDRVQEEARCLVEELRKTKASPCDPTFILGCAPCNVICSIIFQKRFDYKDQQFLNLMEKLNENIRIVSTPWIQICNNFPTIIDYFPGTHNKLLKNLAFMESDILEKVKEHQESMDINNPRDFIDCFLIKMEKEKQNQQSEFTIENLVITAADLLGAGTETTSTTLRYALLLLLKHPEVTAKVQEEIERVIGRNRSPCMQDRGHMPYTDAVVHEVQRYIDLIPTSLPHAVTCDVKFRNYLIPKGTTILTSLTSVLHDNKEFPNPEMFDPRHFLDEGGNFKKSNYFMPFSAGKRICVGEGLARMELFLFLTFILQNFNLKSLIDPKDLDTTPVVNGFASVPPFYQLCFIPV

## N#CCCN1C(=O)CC[C@H]1C(=O)N1CC[C@@]2(S(=O)(=O)c3ccc(F)cc3)c3ccc(C(F)(C(F)(F)F)C(F)(F)F)nc3CC[C@@H]12
[1]
  fraction unbound: 0.051
[2]
  Papp A→B: 190 nm/s
Cytochrome P450 2C8
  IC50: > 20 µM
[3]
  fraction unbound: 0.071
[4]
  EC50: 0.031 µM
Cytochrome P450 3A4
  IC50: 19 µM
[5]
  remaining at 10 min: 100%
[6]
  efflux ratio: 1.7
[7]
  remaining at 10 min: 83%
[8]
  EC50: 0.024 µM

## O=C(N[C@@H]1CC[C@@]2(S(=O)(=O)c3ccc(F)cc3)c3ccc(C(F)(C(F)(F)F)C(F)(F)F)nc3CC[C@@H]12)C1CCS(=O)(=O)CC1
[1]
  fraction unbound: 0.022
[2]
  Papp A→B: 81 nm/s
Cytochrome P450 2C8
  IC50: 16 µM
[4]
  EC50: 0.067 µM
Cytochrome P450 3A4
  IC50: > 20 µM
Cytochrome P450 2C9
  IC50: 9.5 µM
Cytochrome P450 2C19
  IC50: > 20 µM
[5]
  remaining at 10 min: 100%
[6]
  efflux ratio: 2.2
[7]
  remaining at 10 min: 82%
[8]
  EC50: 0.0084 µM

## CC(C)(O)C(=O)N[C@@H]1CC[C@@]2(S(=O)(=O)c3ccc(F)cc3)c3ccc(C(F)(C(F)(F)F)C(F)(F)F)nc3CC[C@@H]12
[1]
  fraction unbound: 0.023
[2]
  Papp A→B: 180 nm/s
Cytochrome P450 2C8
  IC50: 8.3 µM
[4]
  EC50: 0.067 µM
Cytochrome P450 3A4
  IC50: > 20 µM
Cytochrome P450 2C9
  IC50: 3.2 µM
Cytochrome P450 2C19
  IC50: > 20 µM
[5]
  remaining at 10 min: 100%
[6]
  efflux ratio: 0.5
[7]
  remaining at 10 min: 100%
[8]
  EC50: 0.0039 µM

## O=C(C1CCS(=O)(=O)CC1)N1CC[C@@]2(S(=O)(=O)c3ccc(F)cc3)c3ccc(C(F)(C(F)(F)F)C(F)(F)F)nc3CC[C@@H]12
[1]
  fraction unbound: 0.05
[2]
  Papp A→B: 230 nm/s
Cytochrome P450 2C8
  IC50: 16 µM
Cytochrome P450 3A4
  IC50: > 20 µM
[5]
  remaining at 10 min: 100%
[7]
  remaining at 10 min: 91%

## CC(C)(O)CC(=O)N[C@@H]1CC[C@@]2(S(=O)(=O)c3ccc(F)cc3)c3ccc(C(F)(C(F)(F)F)C(F)(F)F)nc3CC[C@@H]12
[1]
  fraction unbound: 0.018
[2]
  Papp A→B: 120 nm/s
Cytochrome P450 2C8
  IC50: 6.3 µM
[4]
  EC50: 0.101 µM
Cytochrome P450 3A4
  IC50: 9.1 µM
Cytochrome P450 2C9
  IC50: 8.5 µM
Cytochrome P450 2C19
  IC50: 16 µM
[5]
  remaining at 10 min: 100%
[6]
  efflux ratio: 0.5
[7]
  remaining at 10 min: 87%
[8]
  EC50: 0.006 µM

## CC(C)(O)CC(=O)N[C@@H]1CC[C@@]2(S(=O)(=O)c3ccc(F)cc3)c3ccc(C(F)(C(F)(F)F)C(F)(F)F)cc3CC[C@@H]12
[1]
  fraction unbound: 0.006
[2]
  Papp A→B: 150 nm/s
Cytochrome P450 2C8
  IC50: 12 µM
[3]
  fraction unbound: 0.002
Cytochrome P450 3A4
  IC50: 11 µM
Cytochrome P450 2C9
  IC50: 12 µM
Cytochrome P450 2C19
  IC50: 7.7 µM
[5]
  remaining at 10 min: 97%
[7]
  remaining at 10 min: 86%

## O=C(C1CCS(=O)(=O)CC1)N1CC[C@@]2(S(=O)(=O)c3ccc(F)cc3)c3ncc(C(F)(C(F)(F)F)C(F)(F)F)cc3CC[C@@H]12
[5]
  remaining at 10 min: 100%
[7]
  remaining at 10 min: 96%
[8]
  EC50: 0.071 µM

## N#CCCN1C(=O)CC[C@H]1C(=O)N1CC[C@@]2(S(=O)(=O)c3ccc(F)cc3)c3ccc(C(F)(C(F)(F)F)C(F)(F)F)cc3CC[C@@H]12
[1]
  fraction unbound: 0.017
[2]
  Papp A→B: 170 nm/s
Cytochrome P450 2C8
  IC50: 13 µM
[3]
  fraction unbound: 0.018
Cytochrome P450 3A4
  IC50: 10 µM
[5]
  remaining at 10 min: 92%
[7]
  remaining at 10 min: 85%

## C[C@](O)(CS(C)(=O)=O)C(=O)N[C@@H]1CC[C@@]2(S(=O)(=O)c3ccc(F)cc3)c3ccc(C(F)(C(F)(F)F)C(F)(F)F)nc3CC[C@@H]12
[5]
  remaining at 10 min: 97%
[7]
  remaining at 10 min: 100%

## O=C(C1CCS(=O)(=O)CC1)N1CC[C@@]2(S(=O)(=O)c3ccc(F)cc3)c3cnc(C(F)(C(F)(F)F)C(F)(F)F)cc3CC[C@@H]12
[4]
  EC50: 0.023 µM
[5]
  remaining at 10 min: 92%
[7]
  remaining at 10 min: 49%
[8]
  EC50: 0.017 µM

## O=C(N[C@@H]1CC[C@@]2(S(=O)(=O)c3ccc(F)cc3)c3ccc(C(F)(C(F)(F)F)C(F)(F)F)cc3CC[C@@H]12)C1CCS(=O)(=O)CC1
[1]
  fraction unbound: 0.003
[2]
  Papp A→B: 73 nm/s
Cytochrome P450 2C8
  IC50: 6.5 µM
[4]
  EC50: 0.05 µM
Cytochrome P450 3A4
  IC50: 5.8 µM
Cytochrome P450 2C9
  IC50: 5.5 µM
Cytochrome P450 2C19
  IC50: > 20 µM
[5]
  remaining at 10 min: 100%
[6]
  efflux ratio: 0.5
[7]
  remaining at 10 min: 95%
[8]
  EC50: 0.0087 µM

## C[C@](O)(CS(C)(=O)=O)C(=O)N[C@@H]1CC[C@@]2(S(=O)(=O)c3ccc(F)cc3)c3ccc(C(F)(C(F)(F)F)C(F)(F)F)cc3CC[C@@H]12
[1]
  fraction unbound: 0.002
[2]
  Papp A→B: 76 nm/s
Cytochrome P450 2C8
  IC50: 13 µM
[4]
  EC50: 0.12 µM
Cytochrome P450 3A4
  IC50: > 20 µM
Cytochrome P450 2C9
  IC50: 9.2 µM
Cytochrome P450 2C19
  IC50: 15 µM
[5]
  remaining at 10 min: 89%
[6]
  efflux ratio: 0.9
[7]
  remaining at 10 min: 83%
[8]
  EC50: 0.0055 µM

## C[C@@](O)(CS(C)(=O)=O)C(=O)N[C@@H]1CC[C@@]2(S(=O)(=O)c3ccc(F)cc3)c3ccc(C(F)(C(F)(F)F)C(F)(F)F)cc3CC[C@@H]12
[1]
  fraction unbound: 0.004
[2]
  Papp A→B: 64 nm/s
Cytochrome P450 2C8
  IC50: 5 µM
[4]
  EC50: 0.039 µM
Cytochrome P450 3A4
  IC50: > 20 µM
Cytochrome P450 2C9
  IC50: 12 µM
Cytochrome P450 2C19
  IC50: 15 µM
[5]
  remaining at 10 min: 98%
[6]
  efflux ratio: 0.5
[7]
  remaining at 10 min: 84%
[8]
  EC50: 0.0025 µM

## O=C(C1CCS(=O)(=O)CC1)N1CC[C@@]2(S(=O)(=O)c3ccc(F)cc3)c3ccc(C(F)(C(F)(F)F)C(F)(F)F)cc3CC[C@@H]12
[1]
  fraction unbound: 0.068
[2]
  Papp A→B: 130 nm/s
Cytochrome P450 2C8
  IC50: 9.4 µM
[3]
  fraction unbound: 0.008
Cytochrome P450 3A4
  IC50: 13 µM
[5]
  remaining at 10 min: 93%
[7]
  remaining at 10 min: 100%

## N#CCCN1C(=O)CC[C@H]1C(=O)N1CC[C@@]2(S(=O)(=O)c3ccc(F)cc3)c3ncc(C(F)(C(F)(F)F)C(F)(F)F)cc3CC[C@@H]12
[1]
  fraction unbound: 0.16
[2]
  Papp A→B: 94 nm/s
Cytochrome P450 2C8
  IC50: > 20 µM
[3]
  fraction unbound: 0.2
Cytochrome P450 3A4
  IC50: > 20 µM
[5]
  remaining at 10 min: 83%
[7]
  remaining at 10 min: 82%

## N#CCCN1C(=O)CC[C@H]1C(=O)N1CC[C@@]2(S(=O)(=O)c3ccc(F)cc3)c3cnc(C(F)(C(F)(F)F)C(F)(F)F)cc3CC[C@@H]12
[1]
  fraction unbound: 0.068
[2]
  Papp A→B: 120 nm/s
Cytochrome P450 2C8
  IC50: > 20 µM
[3]
  fraction unbound: 0.12
Cytochrome P450 3A4
  IC50: 12 µM
[5]
  remaining at 10 min: 100%
[7]
  remaining at 10 min: 69%

— ChEMBL document CHEMBL4706752 (ACS Med Chem Lett, 2021)
